Source: ChEMBL document CHEMBL4800722, “Data for DCP probe BI 605906” (2021)

How the values were obtained:
[1] = biological target: Serine/threonine-protein kinase 25 (Homo sapiens) (UniProt O00506); settings: Compound concentration 1.0 uM
[2] = biological target: MAP kinase-activated protein kinase 5 (Homo sapiens) (UniProt Q8IW41); test: PRAK DUNDEE kinase screen (BI); settings: Compound concentration 10.0 uM
[3] = biological target: cAMP-dependent protein kinase catalytic subunit gamma (Homo sapiens) (UniProt P22612); test: PRKACG (PRKAC GAM Invitrogen Lab (UK) kinase screen (BI); settings: Compound concentration 1.0 uM
[4] = biological target: D(2) dopamine receptor (Homo sapiens) (UniProt P14416); settings: Compound concentration 10.0 uM
[5] = biological target: Aurora kinase C (Homo sapiens) (UniProt Q9UQB9); settings: Compound concentration 1.0 uM
[6] = biological target: Cyclin-dependent kinase 2/cyclin E1 (Homo sapiens) (UniProt P24864+P24941); settings: Compound concentration 1.0 uM
[7] = biological target: MAP/microtubule affinity-regulating kinase 3 (Homo sapiens) (UniProt P27448); test: MARK3 DUNDEE kinase screen (BI); settings: Compound concentration 10.0 uM
[8] = biological target: T1, Serine/threonine-protein kinase Chk1 (Homo sapiens) (UniProt O14757)
T1 sequence (whole entry): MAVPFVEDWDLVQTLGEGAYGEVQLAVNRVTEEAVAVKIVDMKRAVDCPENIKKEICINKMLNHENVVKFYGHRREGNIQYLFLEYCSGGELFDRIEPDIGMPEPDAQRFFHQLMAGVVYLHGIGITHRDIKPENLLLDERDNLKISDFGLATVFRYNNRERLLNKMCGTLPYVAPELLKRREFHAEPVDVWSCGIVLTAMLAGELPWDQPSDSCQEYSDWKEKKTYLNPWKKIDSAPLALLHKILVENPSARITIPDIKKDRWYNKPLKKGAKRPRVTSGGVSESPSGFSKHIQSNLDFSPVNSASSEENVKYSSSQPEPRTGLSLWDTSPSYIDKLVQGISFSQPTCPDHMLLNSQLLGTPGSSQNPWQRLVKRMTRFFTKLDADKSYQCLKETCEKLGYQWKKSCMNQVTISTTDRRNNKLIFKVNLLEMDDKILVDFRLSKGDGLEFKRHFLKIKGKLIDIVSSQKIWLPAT

[9] = biological target: Protein kinase C epsilon type (Homo sapiens) (UniProt Q02156); test: PRKCE Invitrogen Lab (UK) kinase screen (BI); settings: Compound concentration 1.0 uM
[10] = biological target: STE20/SPS1-related proline-alanine-rich protein kinase (Homo sapiens) (UniProt Q9UEW8); test: STK39 (STLK3) Invitrogen Lab (UK) kinase screen (BI); settings: Compound concentration 1.0 uM
[11] = biological target: Serine/threonine-protein kinase Nek4 (Homo sapiens) (UniProt P51957); settings: Compound concentration 1.0 uM
[12] = biological target: Polyunsaturated fatty acid lipoxygenase ALOX15 (Oryctolagus cuniculus) (UniProt P12530); test: 15LO Eurofins SafetyScreen44 (BI); settings: Compound concentration 10.0 uM
[13] = biological target: High affinity nerve growth factor receptor (Homo sapiens) (UniProt P04629); test: NTRK1 Invitrogen Lab (UK) kinase screen (BI)
[14] = biological target: Casein kinase 2 (Homo sapiens) (UniProt P67870+P68400+P19784+Q8NEV1); test: CK2 DUNDEE kinase screen (BI); format: protein assay; settings: Compound concentration 10.0 uM
[15] = biological target: Serine/threonine-protein kinase PAK 5 (Homo sapiens) (UniProt Q9P286); settings: Compound concentration 1.0 uM
[16] = biological target: Mitogen-activated protein kinase kinase kinase 11 (Homo sapiens) (UniProt Q16584); settings: Compound concentration 1.0 uM
[17] = biological target: Rho-associated protein kinase 1 (Homo sapiens) (UniProt Q13464); test: ROCK1 Invitrogen Lab (UK) kinase screen (BI)
[18] = biological target: BDNF/NT-3 growth factors receptor (Homo sapiens) (UniProt Q16620); settings: Compound concentration 1.0 uM
[19] = biological target: Eukaryotic elongation factor 2 kinase (Homo sapiens) (UniProt O00418); test: EF2K DUNDEE kinase screen (BI); settings: filed as activator, Compound concentration 10.0 uM
[20] = biological target: Fibroblast growth factor receptor 3 (Homo sapiens) (UniProt P22607); settings: Compound concentration 1.0 uM
[21] = biological target: Ephrin type-A receptor 1 (Homo sapiens) (UniProt P21709); settings: Compound concentration 1.0 uM
[22] = biological target: Ephrin type-A receptor 4 (Homo sapiens) (UniProt P54764); settings: Compound concentration 1.0 uM
[23] = biological target: Mitogen-activated protein kinase kinase kinase 7 (Homo sapiens) (UniProt O43318); settings: Compound concentration 1.0 uM
[24] = biological target: Tyrosine-protein kinase Mer (Homo sapiens) (UniProt Q12866); settings: Compound concentration 1.0 uM
[25] = biological target: Protein kinase C beta type (Homo sapiens) (UniProt P05771); settings: Compound concentration 1.0 uM
[26] = biological target: Mast/stem cell growth factor receptor Kit (Homo sapiens) (UniProt P10721)
[27] = biological target: Phosphatidylinositol 3-kinase C2 domain-containing subunit gamma (Homo sapiens) (UniProt O75747); settings: Compound concentration 1.0 uM
[28] = biological target: Serine/threonine-protein kinase Chk2 (Homo sapiens) (UniProt O96017); test: CHEK2 Invitrogen Lab (UK) kinase screen (BI); settings: Compound concentration 1.0 uM
[29] = biological target: Aurora kinase B (Homo sapiens) (UniProt Q96GD4); settings: Compound concentration 1.0 uM
[30] = biological target: Angiotensin-converting enzyme (Oryctolagus cuniculus) (UniProt P12822); settings: Compound concentration 10.0 uM
[31] = biological target: Voltage-dependent L-type calcium channel subunit alpha-1C (CA+/DHPSI/RA) (Rattus norvegicus, UniProt P22002); test: CA+/DHPSI/RA Eurofins SafetyScreen44 (BI); settings: read-out: % Ctrl
[32] = biological target: Serine/threonine-protein kinase Nek8 (Homo sapiens) (UniProt Q86SG6); settings: Compound concentration 1.0 uM
[33] = biological target: Dual specificity mitogen-activated protein kinase kinase 1 (Homo sapiens) (UniProt Q02750); test: MKK1 DUNDEE kinase screen (BI); settings: Oryctolagus cuniculus; Compound concentration 10.0 uM
[34] = biological target: Glycogen synthase kinase-3 alpha (Homo sapiens) (UniProt P49840); settings: Compound concentration 1.0 uM
[35] = biological target: Maternal embryonic leucine zipper kinase (Homo sapiens) (UniProt Q14680); test: MELK Invitrogen Lab (UK) kinase screen (BI); settings: Compound concentration 1.0 uM

Sequence of Voltage-dependent L-type calcium channel subunit alpha-1C (CA+/DHPSI/RA) (P22002 whole entry): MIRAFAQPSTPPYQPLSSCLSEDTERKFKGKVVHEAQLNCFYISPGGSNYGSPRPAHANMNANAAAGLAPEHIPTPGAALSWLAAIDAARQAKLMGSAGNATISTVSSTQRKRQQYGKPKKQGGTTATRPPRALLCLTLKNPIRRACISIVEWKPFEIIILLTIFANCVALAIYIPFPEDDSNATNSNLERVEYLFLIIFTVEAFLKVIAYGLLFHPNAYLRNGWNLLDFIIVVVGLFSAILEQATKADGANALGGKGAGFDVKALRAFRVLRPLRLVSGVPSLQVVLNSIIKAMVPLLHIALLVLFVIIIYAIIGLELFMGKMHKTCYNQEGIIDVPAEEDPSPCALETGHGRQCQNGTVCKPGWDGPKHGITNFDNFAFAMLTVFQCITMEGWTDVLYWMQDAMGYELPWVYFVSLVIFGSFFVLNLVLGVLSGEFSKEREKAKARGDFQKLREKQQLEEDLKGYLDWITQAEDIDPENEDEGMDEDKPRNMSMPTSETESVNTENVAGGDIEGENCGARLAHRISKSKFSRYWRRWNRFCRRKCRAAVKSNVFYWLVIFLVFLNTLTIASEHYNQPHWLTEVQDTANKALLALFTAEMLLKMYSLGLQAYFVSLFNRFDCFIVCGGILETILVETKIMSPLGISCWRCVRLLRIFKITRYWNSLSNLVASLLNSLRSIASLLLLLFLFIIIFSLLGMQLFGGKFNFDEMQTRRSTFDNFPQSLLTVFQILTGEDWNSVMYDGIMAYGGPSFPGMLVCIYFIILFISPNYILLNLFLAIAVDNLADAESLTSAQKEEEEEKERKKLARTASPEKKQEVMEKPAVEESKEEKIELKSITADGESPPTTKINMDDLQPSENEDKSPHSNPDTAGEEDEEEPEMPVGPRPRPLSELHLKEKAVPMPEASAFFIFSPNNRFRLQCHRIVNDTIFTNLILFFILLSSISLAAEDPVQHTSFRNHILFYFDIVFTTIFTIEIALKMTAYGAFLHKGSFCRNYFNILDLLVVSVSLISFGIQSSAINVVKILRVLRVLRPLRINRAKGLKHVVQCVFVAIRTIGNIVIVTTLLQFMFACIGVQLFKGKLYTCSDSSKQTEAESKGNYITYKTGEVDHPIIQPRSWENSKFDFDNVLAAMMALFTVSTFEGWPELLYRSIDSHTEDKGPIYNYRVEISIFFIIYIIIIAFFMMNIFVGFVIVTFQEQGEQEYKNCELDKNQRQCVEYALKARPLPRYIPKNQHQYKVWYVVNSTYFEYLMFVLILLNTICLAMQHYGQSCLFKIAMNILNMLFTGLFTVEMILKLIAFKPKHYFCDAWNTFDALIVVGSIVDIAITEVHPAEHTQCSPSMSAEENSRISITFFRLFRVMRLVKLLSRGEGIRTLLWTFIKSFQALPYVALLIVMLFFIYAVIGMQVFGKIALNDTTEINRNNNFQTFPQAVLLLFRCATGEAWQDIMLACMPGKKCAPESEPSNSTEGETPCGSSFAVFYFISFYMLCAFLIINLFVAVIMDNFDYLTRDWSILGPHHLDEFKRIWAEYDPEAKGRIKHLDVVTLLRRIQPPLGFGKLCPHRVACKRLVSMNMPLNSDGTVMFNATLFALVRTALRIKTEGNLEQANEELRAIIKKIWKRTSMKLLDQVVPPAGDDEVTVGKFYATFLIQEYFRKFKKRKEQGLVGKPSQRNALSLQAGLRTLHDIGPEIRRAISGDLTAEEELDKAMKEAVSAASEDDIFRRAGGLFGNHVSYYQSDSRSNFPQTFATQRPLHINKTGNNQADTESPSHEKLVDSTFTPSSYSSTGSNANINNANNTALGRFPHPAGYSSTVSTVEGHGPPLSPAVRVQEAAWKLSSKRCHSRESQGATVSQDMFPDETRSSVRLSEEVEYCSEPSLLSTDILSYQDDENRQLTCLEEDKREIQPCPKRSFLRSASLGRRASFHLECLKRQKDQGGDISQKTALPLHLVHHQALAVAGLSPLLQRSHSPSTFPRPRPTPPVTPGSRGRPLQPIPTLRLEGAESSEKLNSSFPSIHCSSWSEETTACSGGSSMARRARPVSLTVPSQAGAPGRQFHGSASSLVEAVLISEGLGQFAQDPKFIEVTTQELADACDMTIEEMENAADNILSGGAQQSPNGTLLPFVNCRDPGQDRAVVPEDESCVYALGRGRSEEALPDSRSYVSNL
Sequence of High affinity nerve growth factor receptor (Homo sapiens) (P04629 33-796 limits assumed): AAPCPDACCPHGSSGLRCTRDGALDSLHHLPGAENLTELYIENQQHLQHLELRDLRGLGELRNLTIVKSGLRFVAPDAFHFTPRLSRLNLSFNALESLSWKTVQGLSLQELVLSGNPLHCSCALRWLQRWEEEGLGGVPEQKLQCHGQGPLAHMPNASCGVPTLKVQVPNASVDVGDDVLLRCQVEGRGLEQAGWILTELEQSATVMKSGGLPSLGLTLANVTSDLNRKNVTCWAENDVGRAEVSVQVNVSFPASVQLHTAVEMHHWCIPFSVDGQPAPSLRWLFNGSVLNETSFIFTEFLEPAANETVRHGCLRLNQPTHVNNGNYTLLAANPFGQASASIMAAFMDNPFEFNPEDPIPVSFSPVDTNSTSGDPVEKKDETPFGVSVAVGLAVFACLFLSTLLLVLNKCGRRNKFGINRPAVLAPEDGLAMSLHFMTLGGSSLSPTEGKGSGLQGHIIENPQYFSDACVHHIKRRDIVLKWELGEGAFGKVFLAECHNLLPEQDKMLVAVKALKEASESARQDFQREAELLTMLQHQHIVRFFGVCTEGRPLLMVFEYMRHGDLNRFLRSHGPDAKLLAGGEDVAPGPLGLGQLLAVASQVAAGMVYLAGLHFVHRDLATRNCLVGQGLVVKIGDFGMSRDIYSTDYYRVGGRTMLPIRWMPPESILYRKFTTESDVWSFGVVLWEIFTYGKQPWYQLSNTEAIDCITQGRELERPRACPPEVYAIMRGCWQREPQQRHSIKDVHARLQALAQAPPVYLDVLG
Sequence of Rho-associated protein kinase 1 (Homo sapiens) (Q13464 2-1354 limits assumed): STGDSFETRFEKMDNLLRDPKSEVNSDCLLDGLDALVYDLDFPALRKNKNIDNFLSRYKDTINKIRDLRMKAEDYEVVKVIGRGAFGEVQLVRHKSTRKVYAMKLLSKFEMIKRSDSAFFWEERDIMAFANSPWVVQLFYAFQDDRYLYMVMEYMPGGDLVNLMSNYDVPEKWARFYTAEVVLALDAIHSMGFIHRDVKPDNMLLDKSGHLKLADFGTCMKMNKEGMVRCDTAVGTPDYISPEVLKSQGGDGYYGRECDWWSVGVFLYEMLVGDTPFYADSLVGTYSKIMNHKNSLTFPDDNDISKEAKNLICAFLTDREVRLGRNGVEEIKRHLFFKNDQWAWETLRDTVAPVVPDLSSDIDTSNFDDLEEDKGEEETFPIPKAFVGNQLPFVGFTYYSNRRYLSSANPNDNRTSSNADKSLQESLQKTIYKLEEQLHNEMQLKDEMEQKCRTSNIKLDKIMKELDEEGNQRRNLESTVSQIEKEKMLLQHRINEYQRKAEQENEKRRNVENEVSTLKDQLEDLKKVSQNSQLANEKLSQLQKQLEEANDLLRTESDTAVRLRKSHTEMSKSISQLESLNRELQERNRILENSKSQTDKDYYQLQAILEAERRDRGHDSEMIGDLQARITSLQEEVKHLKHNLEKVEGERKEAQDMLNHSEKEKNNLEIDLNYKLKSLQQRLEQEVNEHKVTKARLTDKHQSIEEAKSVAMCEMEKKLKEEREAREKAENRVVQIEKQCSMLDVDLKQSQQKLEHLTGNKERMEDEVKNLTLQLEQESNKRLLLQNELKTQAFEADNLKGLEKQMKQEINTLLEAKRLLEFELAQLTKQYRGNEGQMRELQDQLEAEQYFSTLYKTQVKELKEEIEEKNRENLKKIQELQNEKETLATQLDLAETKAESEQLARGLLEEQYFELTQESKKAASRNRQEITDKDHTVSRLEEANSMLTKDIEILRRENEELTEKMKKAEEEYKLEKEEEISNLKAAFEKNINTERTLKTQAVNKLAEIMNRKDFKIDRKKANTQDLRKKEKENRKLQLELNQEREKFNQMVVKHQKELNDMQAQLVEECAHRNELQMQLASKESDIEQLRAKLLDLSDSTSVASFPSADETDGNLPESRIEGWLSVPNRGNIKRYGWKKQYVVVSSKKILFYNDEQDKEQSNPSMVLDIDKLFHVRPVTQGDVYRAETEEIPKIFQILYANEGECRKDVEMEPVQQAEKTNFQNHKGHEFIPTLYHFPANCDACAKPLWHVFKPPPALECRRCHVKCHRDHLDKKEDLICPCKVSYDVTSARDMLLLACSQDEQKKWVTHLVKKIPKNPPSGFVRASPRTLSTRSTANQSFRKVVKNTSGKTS
Sequence of Serine/threonine-protein kinase Nek4 (Homo sapiens) (P51957 whole entry, looked up): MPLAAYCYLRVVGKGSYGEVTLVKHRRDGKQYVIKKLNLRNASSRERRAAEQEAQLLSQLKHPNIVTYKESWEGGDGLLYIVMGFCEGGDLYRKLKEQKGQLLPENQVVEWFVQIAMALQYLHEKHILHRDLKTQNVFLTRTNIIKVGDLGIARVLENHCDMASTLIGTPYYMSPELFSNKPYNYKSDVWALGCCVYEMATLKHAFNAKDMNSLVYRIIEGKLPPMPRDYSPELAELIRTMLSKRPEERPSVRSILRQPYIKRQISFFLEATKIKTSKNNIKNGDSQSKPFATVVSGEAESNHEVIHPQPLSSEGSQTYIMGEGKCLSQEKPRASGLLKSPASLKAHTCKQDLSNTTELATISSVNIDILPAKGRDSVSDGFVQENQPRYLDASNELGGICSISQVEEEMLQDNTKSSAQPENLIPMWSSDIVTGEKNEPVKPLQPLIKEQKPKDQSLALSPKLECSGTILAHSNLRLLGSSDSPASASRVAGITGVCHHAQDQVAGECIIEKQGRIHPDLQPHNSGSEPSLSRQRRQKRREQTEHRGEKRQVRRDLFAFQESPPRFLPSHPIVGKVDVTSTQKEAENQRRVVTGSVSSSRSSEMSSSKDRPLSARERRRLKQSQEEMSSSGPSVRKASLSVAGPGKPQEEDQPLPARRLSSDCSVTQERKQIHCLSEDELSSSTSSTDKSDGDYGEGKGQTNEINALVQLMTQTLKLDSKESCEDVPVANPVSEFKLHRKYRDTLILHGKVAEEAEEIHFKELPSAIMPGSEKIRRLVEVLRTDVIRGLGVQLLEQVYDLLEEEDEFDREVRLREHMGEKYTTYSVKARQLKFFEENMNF

Work on `CCC(F)(F)c1cc(N2CCC(S(C)(=O)=O)CC2)nc2sc(C(N)=O)c(N)c12` [BI-605906] yielded a residual activity [1] of 100%, a residual activity [2] of 61.1% and a residual activity [3] of 103%. The inhibition [4] was 69.8%, the residual activity [5] was 95% and the residual activity [6] was 94%. For the same molecule, the residual activity [7] was 63.8%, the residual activity ([8]; Compound concentration 1.0 uM) was 95% and the residual activity ([8]; Compound concentration 10.0 uM) was 89%. For the same molecule, the residual activity [9] was 127%, the residual activity [10] was 88% and the residual activity [11] was 89%. It also gave a residual activity [12] of 79%, a residual activity ([13]; Compound concentration 1.0 uM) of 81% and a residual activity ([13]; Compound concentration 10.0 uM) of 83%. The residual activity [14] was 89.4%, the residual activity [15] was 93% and the residual activity [16] was 95%. It also gave a residual activity ([17]; Compound concentration 1.0 uM) of 88%, a residual activity ([17]; Compound concentration 10.0 uM) of 47% and a residual activity [18] of 95%. For the same molecule, the residual activity [19] was 66.2%, the residual activity [20] was 96% and the residual activity [21] was 82%. It also gave a residual activity [22] of 93%, a residual activity [23] of 101% and a residual activity [24] of 93%. The residual activity [25] was 99%, the residual activity ([26]; Compound concentration 1.0 uM) was 89% and the residual activity ([26]; Compound concentration 10.0 uM) was 83%. It also gave a residual activity [27] of 90%, a residual activity [28] of 79% and a residual activity [29] of 98%. The residual activity [30] was 98%, the activity at 1 µM ([31]; compound concentration 1 uM) was 104% (not active) and the activity at 3 µM ([31]; compound concentration 3 uM) was 94% (not active). The activity at 10 µM ([31]; compound concentration 10 uM) was 91% (not active), the activity at 30 µM ([31]; compound concentration 30 uM) was 77% (not active) and the activity at 100 µM ([31]; compound concentration 100 uM) was 41.5%. The residual activity [32] was 95%, the residual activity [33] was 19.3% and the residual activity [34] was 99%. It also gave a residual activity [35] of 103%.
